In patent EP4635500A1, “THERAPEUTIC AGENT FOR BACTERIAL INFECTION” (Sumitomo Pharma Co., Ltd., priority 2022, dated 2024):
≈ marks a conversion by molar mass, not a printed value. Like-named read-outs stand apart in the source and are kept apart here.

Legend:
Type in all cases: cell-based
Porphyromonas spp. = experiment: MIC, agar dilution, anaerobic bacteria (Example 9, Tables 19, 24); conditions: for MIC: (n)=Compound A µg/mL, 0=Compound A alone antibacterial
Acinetobacter baumannii = experiment: MIC and MBC, broth microdilution (Example 4, Table 3); conditions: for MBC: Acinetobacter baumannii
Prevotella spp. = experiment: MIC, agar dilution, anaerobic bacteria (Example 9, Tables 18, 23); conditions: (n)=Compound A µg/mL, 0=Compound A alone antibacterial
[1] = table at the place of Table 24, Prevotella spp.
[2] = Acinetobacter baumannii CDC-303 (OXA-23, OXA-66)

C[C@@H](O)[C@H]1C(=O)N2C(C(=O)O)=C(S[C@@H]3CN[C@H](C(=O)N(C)C)C3)[C@H](C)[C@H]12 [MEPM, meropenem]
MIC (Porphyromonas spp.; KUB No. 6663 Porphyromonas gingivalis): ≤ 0.03 µg/mL
MIC (Porphyromonas spp.; KUB No. 6666 Porphyromonas gingivalis): ≤ 0.03 µg/mL
MIC (Porphyromonas spp.; KUB No. 6667 Porphyromonas gingivalis): ≤ 0.03 µg/mL
MIC (Porphyromonas spp.; KUB No. 6668 Porphyromonas gingivalis): ≤ 0.03 µg/mL
MIC (Porphyromonas spp.; KUB No. 6669 Porphyromonas gingivalis): ≤ 0.03 µg/mL
MIC (Porphyromonas spp.; KUB No. 6670 Porphyromonas gingivalis): ≤ 0.03 µg/mL
MIC (Porphyromonas spp.; KUB No. 6671 Porphyromonas gingivalis): ≤ 0.03 µg/mL
MIC (Porphyromonas spp.; KUB No. 6672 Porphyromonas gingivalis): ≤ 0.03 µg/mL
MIC (Porphyromonas spp.; KUB No. 6673 Porphyromonas gingivalis): ≤ 0.03 µg/mL
MIC (Porphyromonas spp.; KUB No. 6674 Porphyromonas gingivalis): ≤ 0.03 µg/mL
MIC (Porphyromonas spp.; KUB No. 6676 Porphyromonas gingivalis): ≤ 0.03 µg/mL
MIC (Porphyromonas spp.; KUB No. 6677 Porphyromonas gingivalis): ≤ 0.03 µg/mL
MIC (Porphyromonas spp.; KUB No. 6678 Porphyromonas gingivalis): ≤ 0.03 µg/mL
MIC (Porphyromonas spp.; KUB No. 6679 Porphyromonas gingivalis): ≤ 0.03 µg/mL
MIC (Porphyromonas spp.; KUB No. 6680 Porphyromonas gingivalis): ≤ 0.03 µg/mL
MIC (Porphyromonas spp.; KUB No. 6681 Porphyromonas gingivalis): ≤ 0.03 µg/mL
MIC (Porphyromonas spp.; KUB No. 6682 Porphyromonas gingivalis): ≤ 0.03 µg/mL
MIC (Porphyromonas spp.; KUB No. 6683 Porphyromonas gingivalis): ≤ 0.03 µg/mL
MIC (Porphyromonas spp.; KUB No. 6684 Porphyromonas gingivalis): ≤ 0.03 µg/mL
MIC (Porphyromonas spp.; KUB No. 6685 Porphyromonas gingivalis): ≤ 0.03 µg/mL
MIC (Porphyromonas spp.; KUB No. 6686 Porphyromonas gingivalis): ≤ 0.03 µg/mL
MIC (Porphyromonas spp.; KUB No. 6687 Porphyromonas gingivalis): ≤ 0.03 µg/mL
MIC (Porphyromonas spp.; KUB No. 6688 Porphyromonas gingivalis): 0.03 µg/mL (≈ 0.0782 µM)
MIC (Porphyromonas spp.; Porphyromonas, KUB No. 6665 Porphyromonas assaccharolytica): ≤ 0.03 µg/mL
MIC50 (Porphyromonas spp.; Porphyromonas, n=26, combination: Compound A at 4 ug/mL, read-out: MIC50): ≤ 0.03 µg/mL
MIC90 (Porphyromonas spp.; Porphyromonas, n=26, combination: Compound A at 4 ug/mL, read-out: MIC90): ≤ 0.03 µg/mL
MIC50 (Porphyromonas spp.; [1]): ≤0.03 µg/mL
MIC90 (Porphyromonas spp.; [1]): ≤0.03 µg/mL
MICrange (Porphyromonas spp.; [1]): ≤0.03 µg/mL
MIC (Acinetobacter baumannii; [2]): 64 µg/mL (≈ 167 µM)
MIC (Acinetobacter baumannii; Acinetobacter baumannii CDC-304 (OXA-66, OXA-72), read-out: MIC): 64 µg/mL (≈ 167 µM)
MBC (Acinetobacter baumannii; [2]): 64 µg/mL (≈ 167 µM)
MBC (Acinetobacter baumannii; Acinetobacter baumannii CDC-304 (OXA-66, OXA-72)): 64 µg/mL (≈ 167 µM)
MIC (Prevotella spp.; KUB No. 2989 Prevotella histicola): 0.06 µg/mL (≈ 0.156 µM)
MIC (Prevotella spp.; KUB No. 2991 Prevotella intermedia): 0.06 µg/mL (≈ 0.156 µM)
MIC (Prevotella spp.; KUB No. 2992 Prevotella buccae): 0.12 µg/mL (≈ 0.313 µM)
MIC (Prevotella spp.; KUB No. 3005 Prevotella melaninogenica): ≤ 0.03 µg/mL
MIC (Prevotella spp.; KUB No. 6558 Prevotella heparinolytica): 0.06 µg/mL (≈ 0.156 µM)
MIC (Prevotella spp.; KUB No. 6559 Prevotella intermedia): ≤ 0.03 µg/mL
MIC (Prevotella spp.; KUB No. 6560 Prevotella nigrescens): ≤ 0.03 µg/mL
MIC (Prevotella spp.; KUB No. 6561 Prevotella melaninogenica): 0.12 µg/mL (≈ 0.313 µM)
MIC (Prevotella spp.; KUB No. 6563 Prevotella nigrescens): ≤ 0.03 µg/mL
MIC (Prevotella spp.; KUB No. 6564 Prevotella buccae): 0.12 µg/mL (≈ 0.313 µM)
MIC (Prevotella spp.; KUB No. 6565 Prevotella nigrescens): 0.06 µg/mL (≈ 0.156 µM)
MIC (Prevotella spp.; KUB No. 6567 Prevotella melaninogenica): ≤ 0.03 µg/mL
MIC (Prevotella spp.; KUB No. 6568 Prevotella intermedia): 0.06 µg/mL (≈ 0.156 µM)
MIC (Prevotella spp.; KUB No. 6569 Prevotella nanceiensis): 0.5 µg/mL (≈ 1.3 µM)
MIC (Prevotella spp.; KUB No. 6570 Prevotella intermedia): 0.06 µg/mL (≈ 0.156 µM)
MIC (Prevotella spp.; KUB No. 6571 Prevotella denticola): 0.06 µg/mL (≈ 0.156 µM)
MIC (Prevotella spp.; KUB No. 6572 Prevotella melaninogenica): 0.06 µg/mL (≈ 0.156 µM)
MIC (Prevotella spp.; KUB No. 6574 Prevotella oris): ≤ 0.03 µg/mL
MIC (Prevotella spp.; KUB No. 6575 Prevotella nigrescens): ≤ 0.03 µg/mL
MIC (Prevotella spp.; KUB No. 6576 Prevotella intermedia): ≤ 0.03 µg/mL
MIC (Prevotella spp.; KUB No. 6579 Prevotella pallens): 0.06 µg/mL (≈ 0.156 µM)
MIC (Prevotella spp.; KUB No. 6581 Prevotella intermedia): 0.06 µg/mL (≈ 0.156 µM)
MIC (Prevotella spp.; KUB No. 6582 Prevotella melaninogenica): 0.06 µg/mL (≈ 0.156 µM)
MIC (Prevotella spp.; KUB No. 6585 Prevotella baroniae): 0.06 µg/mL (≈ 0.156 µM)
MIC (Prevotella spp.; KUB No. 6587 Prevotella melaninogenica): 0.06 µg/mL (≈ 0.156 µM)
MIC (Prevotella spp.; KUB No. 6588 Prevotella nigrescens): ≤ 0.03 µg/mL
MIC (Prevotella spp.; KUB No. 6589 Prevotella buccae): 0.12 µg/mL (≈ 0.313 µM)
MIC (Prevotella spp.; KUB No. 6590 Prevotella buccae): 0.32 µg/mL (≈ 0.834 µM)
MIC (Prevotella spp.; KUB No. 6591 Prevotella intermedia): 0.06 µg/mL (≈ 0.156 µM)
MIC (Prevotella spp.; KUB No. 6592 Prevotella jejuni): 0.06 µg/mL (≈ 0.156 µM)
MIC (Prevotella spp.; KUB No. 6600 Prevotella intermedia): ≤ 0.03 µg/mL
MIC (Prevotella spp.; KUB No. 6601 Prevotella melaninogenica): 0.12 µg/mL (≈ 0.313 µM)
MIC (Prevotella spp.; KUB No. 6603 Prevotella melaninogenica): 0.12 µg/mL (≈ 0.313 µM)
MIC (Prevotella spp.; KUB No. 6609 Prevotella buccae): 0.12 µg/mL (≈ 0.313 µM)
MIC (Prevotella spp.; KUB No. 6611 Prevotella nigrescens): 0.06 µg/mL (≈ 0.156 µM)
MIC (Prevotella spp.; KUB No. 6612 Prevotella oris): 0.25 µg/mL (≈ 0.652 µM)
MIC (Prevotella spp.; KUB No. 6613 Prevotella buccae): 0.12 µg/mL (≈ 0.313 µM)
MIC (Prevotella spp.; KUB No. 6614 Prevotella intermedia): ≤ 0.03 µg/mL
MIC (Prevotella spp.; KUB No. 6615 Prevotella buccae): 0.06 µg/mL (≈ 0.156 µM)
MIC (Prevotella spp.; KUB No. 6617 Prevotella buccae): 0.06 µg/mL (≈ 0.156 µM)
MIC (Prevotella spp.; KUB No. 6618 Prevotella melaninogenica): 0.06 µg/mL (≈ 0.156 µM)
MIC (Prevotella spp.; KUB No. 6622 Prevotella loescheii): 0.06 µg/mL (≈ 0.156 µM)
MIC (Prevotella spp.; KUB No. 6623 Prevotella nigrescens): ≤ 0.03 µg/mL
MIC (Prevotella spp.; KUB No. 6625 Prevotella melaninogenica): ≤ 0.03 µg/mL
